Laboratory results: the NIST ThermoML archive (doi:10.1021/je7003337)
± gives the expanded uncertainty stated by the source.

Assay: refractive index (Na D-line) (dimensionless)
Conditions: 298.15 K; 101.33 kPa; Liquid; Standard Abbe refractometry

Compound	refractive index
CCCCCC [hexane]	1.37226 ± 0.00072
Cc1ccc(C)cc1 [1,4-dimethylbenzene]	1.49321 ± 0.00072
